US6211242A, “Benzamide derivatives as vasopressin antagonists” (Fujisawa Pharmaceutical Co., Ltd., priority 1994, dated 2001)

Assays:
human V2 receptor = target: T1, human V2 receptor (Homo sapiens, UniProt P30518); assay: Vasopressin 2 (V2) receptor binding (competition with 3H-vasopressin, CHO cells expressing human V2 receptor); conditions: 0.5 nM 3H-vasopressin, CHO cell membranes, 2 hours at 22° C., pH 7.4
T1 construct: expressed in transfected cells
Protocol: Vasopressin 2 (V2) receptor binding
For binding assays, the receptor cDNA was permanently expressed in Chinese hamster ovary (CHO) cells. CHO cells were transfected with a vector directing expression of the cDNA for the human V2 receptor and the clonal cell lines expressing human V2 receptor was established essentially as described previously (Nakajima, Y., et. al. J. Biol. Chem., 1992, 267, 2437).
DNA-transfected cells were harvested and homogenized in ice cold 250 mM sucrose buffer containing 25 mM Tris-HCl (pH 7.4), 10 mM MgCl2, 1 mM EDTA and 5 μg/ml p-amidinophenylmethylsulfonyl fluoride (A-PMSF). The homogenate was centrifuged at 500×g for 10 minutes. The supernatant was centrifuged at 100,000×g for 1 hour. The final pellet was suspended in 25 mM Tris-HCl (pH 7.4) buffer (containing 10 mM […], 1 mM EDTA and 5 μg/ml A-PMSF), and stored in small aliquots at -80° C.
Competition assays were conducted at equilibrium (2 hours at 22° C.) by using 0.5 nM ^3 H-vasopressin (40-87 Ci/mmol, New England Nuclear) in 100 mM Tris-HCl (pH 7.4) buffer (containing 5 mM MgCl2, 5 μg/ml A-PMSF, 4 μg/ml leupeptin, 40 μg/ml bacitracin, 20 μg/ml chymostatin and 0.1% bovine serum albumin). Nonspecific binding was determined by using 1 μM vasopressin. After incubation, reaction mixture was rapidly filtered through Whatman glass filter (GF/C). […] The radioactivity was counted in a liquid scintilation counter. […]

[1] = target: T2, Vasopressin 1 (V1) receptor (Homo sapiens, UniProt P37288); assay: Vasopressin 1 (V1) receptor binding (competition with 3H-vasopressin, platelet membrane preparation); conditions: 1.5 nM 3H-vasopressin, platelet membranes, 15 minutes at 30° C., pH 7.4
T2 construct: Platelet-rich plasma (PRP) was prepared by centrifugation of whole blood; from tissue; host or cells: platelet membranes from blood of normal subjects
T2 sequence (P37288 whole entry): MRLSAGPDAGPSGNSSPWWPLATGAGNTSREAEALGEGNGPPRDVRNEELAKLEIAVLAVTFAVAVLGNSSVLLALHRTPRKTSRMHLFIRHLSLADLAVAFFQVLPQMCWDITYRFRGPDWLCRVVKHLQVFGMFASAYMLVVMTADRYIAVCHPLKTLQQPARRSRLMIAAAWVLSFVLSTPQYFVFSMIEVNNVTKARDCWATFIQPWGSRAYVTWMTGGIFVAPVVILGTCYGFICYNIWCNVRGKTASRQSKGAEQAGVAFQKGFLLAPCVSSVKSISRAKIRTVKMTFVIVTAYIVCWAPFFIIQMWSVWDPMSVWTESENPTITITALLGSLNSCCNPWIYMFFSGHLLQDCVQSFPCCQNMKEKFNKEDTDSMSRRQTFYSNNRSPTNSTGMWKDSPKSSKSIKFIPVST
Protocol: Vasopressin 1 (V1) receptor binding
Blood was obtained by venipuncture from normal subjects. Platelet-rich plasma (PRP) was prepared by centrifugation of whole blood at 200×g for 10 minutes. PRP was centrifuged at 45,000×g for 30 minutes. The remaining pellet was resuspended in 10 volume of ice cold 100 mM Tris-HCl (pH 7.4) buffer (containing 5 mM MgCl2, 0.1% bovine serum albumin and 1 mM EGTA), and centrifuged at 45,000×g for 30 minutes again. The final pellet was resuspended in 100 mM Tris-HCl buffer. The resulting membrane preparation was used immediately for the binding assay.
Competition assays were conducted at equilibrium (15 minutes at 30° C.) by using 1.5 nM ^3 H-vasopressin (40-87 Ci/mmol; New England Nuclear) in 100 mM Tris-HCl (pH 7.4) buffer. Nonspecific binding was determined by using 1 μM vasopressin. After incubation, reaction was terminated by adding 5 ml of ice-cold 100 mM Tris-HCl (pH 7.4) buffer, and then filtered rapidly through Whatman glass filter (GF/C). The filter was washed twice with the same buffer. The glass filter was mixed with liquid scintilation cocktail, and radioactivity was counted in a liquid scintilation counter. Competition activity of the test compound was represented by IC50 values.

T1 sequence (P30518 whole entry): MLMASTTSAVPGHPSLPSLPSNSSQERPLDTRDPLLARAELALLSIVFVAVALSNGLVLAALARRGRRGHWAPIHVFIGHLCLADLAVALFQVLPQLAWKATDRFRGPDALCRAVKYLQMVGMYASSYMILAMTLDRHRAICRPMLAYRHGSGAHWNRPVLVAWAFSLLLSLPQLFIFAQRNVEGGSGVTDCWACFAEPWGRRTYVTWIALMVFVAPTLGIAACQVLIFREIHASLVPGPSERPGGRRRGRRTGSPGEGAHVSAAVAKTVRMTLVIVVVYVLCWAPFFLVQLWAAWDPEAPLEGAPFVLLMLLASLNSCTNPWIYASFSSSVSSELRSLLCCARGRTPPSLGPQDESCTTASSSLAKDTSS

SMILES	IC50 (human V2 receptor)	IC50 [1]
Cc1ccc(-c2ccccc2C(=O)Nc2ccc(C(=O)N(C)c3ccccc3OCc3ccc(C(=O)N4CCN(C)CC4)cc3)cc2)cc1 [27-36)]	3 nM	–
Cc1ccc(N(C)C(=O)c2ccc(NC(=O)c3ccccc3C)cc2)c(OCCCCCC(=O)N2CCN(C)CC2)c1 [27-58), 4-(Methylphenyl-2-carboxamido)-N-methyl-N-[4-methyl-2-[5-(4-methylpiperazin-1-yl)carbonylpent-1-yloxy]phenyl]benzamide]	–	4.4 nM
Cc1ccc(-c2ccccc2C(=O)Nc2ccc(C(=O)N(C)c3ccccc3OCCN(C)CCC(=O)N3CCN(C)CC3)cc2)cc1 [71-1)]	4.4 nM	–
